# Results from paper PMC10820479, “An Improved In Vitro Blood-Brain Barrier Model for the Evaluation of Drug Permeability Using Transwell with Shear Stress” (Pharmaceutics, 2023).
# Where a name gives a salt, the structure may show the parent alone. Read-outs that look alike come from different tables or passages of the source.
# Tests used:
# [1] = Permeability test in the optimized annular shaking dish (AS) BBB model; settings: human
# Procedure: (§1) The culture inserts (Costar®, Washington, DC, USA, 6.5 mm diameter) of polycarbonate (PC) and polyester (PET) membrane were procured from Corning Inc. (Corning, NY, USA). […] After washing twice with PBS, the cells were seeded at a density of 1 × 10^5 hCMEC/D3 cells/well in the apical chamber and 3 × 10^4 U87MG cells/well on the basolateral side of the insert. The cultivation method was modified from that described in the literature. Briefly, the insert was inverted, and U87MG cells were initially seeded. The insert was flipped 3–4 h after seeding the U87MG cells. Subsequently, hCMEC/D3 cells were seeded 1 day later.
# (§2) To prevent nonspecific binding, all compounds were pre-incubated for 30 min prior to the permeability study. The samples were collected at 0 min from the donor and at 30, 60, and 90 min from the acceptor and immediately replaced with a new transport buffer. Incubation was carried out in a humidified 5% CO2 environment at 37 °C with shaking at 100 rpm.
# (§3) After culturing the cells in culture inserts, as described in Section 2.3, they were transferred to the AS prepared on day 3, and cultivation was carried out with orbital shaking at 150 rpm until day 17 (Figure 1b). The cultivated AS BBB model was employed to investigate the effects of the AS size, as well as the influence of FBS and ITS.
# (§4) Chromatographic separations were performed on Agilent Poroshell 120 EC-C18 (3.0 × 50 mm, 2.7 µm; Agilent Technologies, Inc., Santa Clara, CA, USA) and YMC triart C18 (2.0 × 50 mm, 3 µm; YMC Co., Ltd., Kyoto, Japan) columns using 5 mM ammonium formate in water (pH 4) and methanol.
# (§5) The optimized AS BBB model was evaluated as follows.
# [2] = tested on: in vitro AS BBB model (hCMEC/D3 co-cultured with U87MG); test: as above; settings: optimized AS BBB model
# Procedure: as §1, §2, §3, §4, §5
# [3] = monkey; unbound plasma-CSF partition coefficient; cited from earlier work
# [4] = rat; unbound plasma-CSF partition coefficient; cited from earlier work
# P-gp = test: Efflux transporter inhibition assay, P-gp, AS BBB model; type: in vitro ADME; settings: human, optimized AS BBB model
# Procedure: A modified method from a previously published paper was used for the inhibition assay. […] The bidirectional permeability of substrates was evaluated by measuring changes in Papp and the efflux ratio for both the inhibitor- and vehicle-treated groups. The concentration of dantrolene was determined using liquid chromatography with tandem mass spectrometry (LC-MS/MS).
# P-glycoprotein (P-gp) = test: Rhodamine 123 efflux (bidirectional permeability, P-gp activity); settings: for efflux ratio: 10 μM; for efflux ratio at 90 min, 10 μM: human, not told
# Procedure: Bidirectional permeability tests were performed at time points of 0, 30, 60, and 90 min with shaking at 100 rpm. Each sample was measured at 480 nm/530 nm (excitation/emission wavelengths) using the VICTOR® Nivo multimode plate reader. The apparent permeability coefficient (Papp) was determined using Equation (2):Papp (cm/s) = dQ/dt × 1/(A × C0)(2) where: • A is the surface area of the insert filter membrane (cm^2) • C0 is the initial concentration in the donor solution (μM) • dQ/dt is the amount of the drug transported within a given time period (pmol/s)
# [5] = tested on: hCMEC/D3 cell layer on transwell inserts; test: Lucifer yellow (LY) diffusion, cell layer integrity; settings: AS BBB model (discussion)
compound,measurement,setting,value
"NC(=O)N1c2ccccc2C=Cc2ccccc21 [Carbamazepine, carbamazepine]","Papp at 90 min, 20 μM",[1],29 ± 4.4 ×10⁻⁶ cm/s
same,permeability (in words),[2],high permeability
same,"Kp,uu,CSF",[3],0.979 (monkey) ^3
Cc1ncc2n1-c1ccc(Cl)cc1C(c1ccccc1F)=NC2 [Midazolam],Papp,[1],41.5 ± 2.8 ×10⁻⁶ cm/s
same,"Kp,uu,CSF",[4],1.35 (rat) ^2
"O=C1NC(=O)C(c2ccccc2)(c2ccccc2)N1 [Phenytoin, phenytoin sodium]","Papp at 90 min, 20 μM",[1],21.8 ± 1.2 ×10⁻⁶ cm/s
"CC(C)NCC(O)COc1cccc2ccccc12 (stereo not shown) [Propranolol, propranolol HCl]","Papp at 90 min, 20 μM",[1],24.6 ± 4.5 ×10⁻⁶ cm/s
"COC(=O)c1ccccc1-c1c2ccc(=N)cc-2oc2cc(N)ccc12 [Rhodamine123, rhodamine 123]","Papp at 90 min, 20 μM",[1],0.67 ± 0.14 ×10⁻⁶ cm/s
same,permeability (in words),[2],low
same,efflux ratio at 10 μM,"P-gp; with cyclosporin A 10 μM, with P-gp inhibitor cyclosporin A 10 μM",1.6 ± 0.13
same,efflux ratio at 10 μM,"P-gp; without inhibitor, 10 μM",4.2 ± 0.15
same,efflux ratio,P-glycoprotein (P-gp); 15 cm AS group,exceeding two
same,efflux ratio,"P-glycoprotein (P-gp); 15 cm AS, 5% FBS + ITS",4.04 ± 0.04
same,"efflux ratio at 90 min, 10 μM","P-glycoprotein (P-gp); 15 cm AS, 2% FBS + ITS",6.73 ± 0.94
same,"efflux ratio at 90 min, 10 μM","P-glycoprotein (P-gp); 15 cm AS, 5% FBS",2.4 ± 0.05
same,"efflux ratio at 90 min, 10 μM","P-glycoprotein (P-gp); 15 cm AS, 5% FBS + ITS",4 ± 0.04
"CCN1CCCC1CNC(=O)c1cc(S(N)(=O)=O)ccc1OC (stereo not shown) [Sulpiride, sulpiride]","Papp at 90 min, 20 μM",[1],10.2 ± 0.82 ×10⁻⁶ cm/s
same,"Kp,uu,CSF",[4],0.049 (rat) ^2
lucifer yellow CH dipotassium salt [LY],transport of LY through the paracellular pathway,[5],less than 1%
